Laboratory results: article PMC3459870, “Hit-to-Lead Development of the Chamigrane Endoperoxide Merulin A for the Treatment of African Sleeping Sickness” (PLoS ONE, 2012)
Where two headings read alike, the source gives them in different places.

What was measured:
[1] = tested on: Trypanosoma brucei brucei strain 427–221; assay: Trypanosome screening assay (CellTiter-Glo ATP bioluminescence, 48 h); format: cell-based; conditions: for IC50: Trypanosoma brucei
Experimental: Trypanosoma brucei brucei strain 427–221 were grown at 37°C, 5% CO2 in HMI-9 medium containing 10% Fetal Bovine Serum, 10% Serum Plus (JRH Inc., Lenexa, KS,USA) and penicillin/streptomycin.
T.b.b. 427–221 were diluted to 2.10^4 per ml in complete HMI-9 medium and aliquoted in Greiner sterile 384-well flat white opaque culture plates using a WellMate cell dispenser from Matrix Tech. (Hudson, NH, USA). Test compounds were serially diluted in dimethyl sulfoxide (DMSO) and added to the assay plates with the robotic dispenser Biomek FXp liquid handler (Beckman Coulter). Thimerosal (2 µM final concentration) was added as a positive control and DMSO as a negative control (1% final concentration). Trypanosomes were incubated with compounds for 48 hours at 37°C with 5% CO2 before monitoring cell viability as previously described. Briefly, trypanosomes were lysed in the wells by adding 25 µL of CellTiter-GloTM (Promega). The lysed trypanosomes were placed on an orbital shaker at room temperature for 2 minutes. After lysis, the resulting ATP-bioluminescence was measured at room temperature using an Analyst HT plate reader (Molecular Devices). Percentage inhibition of parasite growth was calculated for each well as [1−(RLUx−RLU+)/(RLU−−RLU+)]*100 where RLUx, RLU+ and RLU− are respectively the Relative Light Units for each well, positive (thimerosal) and negative (DMSO) controls. A screening window coefficient, denoted Z′ factor, was used to evaluate the performance of the assay. The Z′ factor, calculated as 1−(3σc++3σc−)/(μc+−μc−) where σc+, σc−, μc+ and μc− are respectively the standard deviation and mean values of positive and negative controls, is reflective of the assay signal dynamic range and the data variation associated with signal measurement. IC50's were calculated using Prism (GraphPad).

[2] = tested on: HeLa cells; assay: HeLa toxicity screening assay (nuclei count by imaging, 17 h); format: cell-based, human; conditions: Homo sapiens, HeLa; Figure 4
Experimental: (§1) HeLa cells were plated at a density of 2,000 cells per well into two 384 well clear bottom plates (Costar 3712) in DMEM with 10% FBS. After 24 hours incubation at 37°C with 5% CO2 the cells were pinned with 200 nL of a two-fold serial dilution of merulin analogues. After 17 hours of treatment at 37°C in 5% CO2 the plates were fixed with 4% formaldehyde and washed with PBS (BioTek ELx405). After 10 minutes in PBS with 0.5% TritonX-100 each plate was washed and blocked with 2% Bovine Serum Albumin in PBS. Nuclei were stained with Hoechst 33342 then washed and placed in 40 µL of PBS with 0.1% sodium azide. Plates were imaged using the ImageXpress Micro epifluorescent scope (Molecular Devices). MetaXpress software was used to quantify total number of cells and IC50s were calculated using Prism (GraphPad).

[3] = tested on: T98-G cells; assay: Glioblastoma toxicity screening assay (nuclei count by imaging, 17 h); format: cell-based; conditions: Homo sapiens, T98G; Figure 4
Experimental: as §1, with “T98-G cells (ATTC” for “HeLa cells were”, “T98-G cells (ATTC number: CRL-1690) were plated” for “HeLa cells were plated”

[4] = text and Figures 1, 3, bloodstream form, read-out: IC50 against T. brucei brucei
[5] = Figure 4, bloodstream form, read-out: T.b.b IC50

| Structure (SMILES) | IC50 [2] [µM] | IC50 [3] [µM] | IC50 [1, 5] [µM] | further results |
| --- | --- | --- | --- | --- |
| NCCCC(N)(C(=O)O)C(F)F (stereo not shown) [Eflornithine, reference compound] | – | – | – | IC50 ([1]; Table 3, read-out: T.b.b IC50): 59 µM |
| CC1(C)CCC(=O)C2(C)OOC3CC12CCC3(O)CO (stereo not shown) [Merulin B (6), Merulin B] | – | – | – | IC50 ([1]; Table 3, read-out: T.b.b IC50): 8 µM |
| CC1(C)C=CC(=O)[C@@]2(C)OO[C@@H]3C[C@]12CCC3(O)CO (stereo partly shown) [Merulin C (7), Merulin C] | – | – | – | IC50 ([1]; Table 3, read-out: T.b.b IC50): 0.8 µM |
| N=C(N)c1ccc(OCCCCCOc2ccc(C(=N)N)cc2)cc1 [Pentamidine, reference compound] | – | – | – | IC50 ([1]; Table 3, read-out: T.b.b IC50): 0.03 µM |
| Cc1ccc(C(=O)Nc2ccc(S(=O)(=O)O)c3cc(S(=O)(=O)O)cc(S(=O)(=O)O)c23)cc1NC(=O)c1cccc(NC(=O)Nc2cccc(C(=O)Nc3cc(C(=O)Nc4ccc(S(=O)(=O)O)c5cc(S(=O)(=O)O)cc(S(=O)(=O)O)c45)ccc3C)c2)c1 [Suramin, reference compound] | – | – | – | IC50 ([1]; Table 3, read-out: T.b.b IC50): 0.007 µM |
| CC1(C)CC[C@@H](O)[C@@]2(C)OO[C@H]3C[C@@]12CC[C@H]3O [compound 8, (3S,4R,6aS,10R,10aS)-7,7,10a-trimethyloctahydro-3H-3,6a-methanobenzo[c][1,2]dioxocine-4,10-diol] | – | – | – | IC50 [1, 4]: > 50 µM |
| CC1(C)CCC(=O)[C@@](C)(O)[C@]12CC[C@@H](O)[C@@H](O)C2 [compound 9, (1S,6S,8S,9R)-1,8,9-trihydroxy-1,5,5-trimethylspiro[5.5]undecan-2-one] | – | – | – | IC50 [1, 4]: > 50 µM; activity against T. brucei brucei in words ([1]; initial SAR series): complete loss of activity |
| CC(=O)O[C@@H]1CC[C@@]23C[C@@H]1OO[C@]2(C)C(=O)CCC3(C)C [compound 10, (3S,4R,6aS,10aS)-7,7,10a-trimethyl-10-oxooctahydro-3H-3,6a-methanobenzo[c][1,2]dioxocin-4-yl acetate] | – | – | – | IC50 [1, 4]: 14 µM |
| CC(C)(C)C(=O)O[C@@H]1CC[C@@]23C[C@@H]1OO[C@]2(C)C(=O)CCC3(C)C [compound 11, (3S,4R,6aS,10aS)-7,7,10a-trimethyl-10-oxooctahydro-3H-3,6a-methanobenzo[c][1,2]dioxocin-4-yl pivalate] | – | – | – | IC50 [1, 4]: 8 µM |
| CC1(C)CCC(=O)[C@@]2(C)OO[C@H]3C[C@@]12CC[C@H]3OC(=O)C1COc2ccccc2O1 (stereo partly drawn) [compound 12, (3S,4R,6aS,10aS)-7,7,10a-trimethyl-10-oxooctahydro-3H-3,6a-methanobenzo[c][1,2]dioxocin-4-yl 2,3-dihydrobenzo[b][1,4]dioxine-2-carboxylate] | > 50 | > 50 | – | IC50 ([1]; Table 3, read-out: T.b.b IC50): 0.06 µM |
| CC1(C)CCC(=O)[C@@]2(C)OO[C@H]3C[C@@]12CC[C@H]3OC(=O)c1ccc2c(c1)OCCO2 [compound 13, (3S,4R,6aS,10aS)-7,7,10a-trimethyl-10-oxooctahydro-3H-3,6a-methanobenzo[c][1,2]dioxocin-4-yl 2,3-dihydrobenzo[b][1,4]dioxine-6-carboxylate] | 28 | > 50 | 0.26 | – |
| CC1(C)CCC(=O)[C@@]2(C)OO[C@H]3C[C@@]12CC[C@H]3OC(=O)c1cc2ccccc2oc1=O [compound 14, (3S,4R,6aS,10aS)-7,7,10a-trimethyl-10-oxooctahydro-3H-3,6a-methanobenzo[c][1,2]dioxocin-4-yl 2-oxo-2H-chromene-3-carboxylate] | > 50 | > 50 | 0.42 | – |
| CC1(C)CCC(=O)[C@@]2(C)OO[C@H]3C[C@@]12CC[C@H]3OC(=O)c1cccc(-c2ccccc2)c1 [compound 15, (3S,4R,6aS,10aS)-7,7,10a-trimethyl-10-oxooctahydro-3H-3,6a-methanobenzo[c][1,2]dioxocin-4-yl [1,1′-biphenyl]-3-carboxylate] | > 50 | > 50 | 0.24 | – |
| CC1(C)CCC(=O)[C@@]2(C)OO[C@H]3C[C@@]12CC[C@H]3OC(=O)c1ccc(C2CCCCC2)cc1 [compound 16, (3S,4R,6aS,10aS)-7,7,10a-trimethyl-10-oxooctahydro-3H-3,6a-methanobenzo[c][1,2]dioxocin-4-yl 4-cyclohexylbenzoate] | 13 | > 50 | 0.11 | – |
| CC1(C)CCC(=O)[C@@]2(C)OO[C@H]3C[C@@]12CC[C@H]3OC(=O)Cc1cccc2ccccc12 [compound 17, (3S,4R,6aS,10aS)-7,7,10a-trimethyl-10-oxooctahydro-3H-3,6a-methanobenzo[c][1,2]dioxocin-4-yl 2-(naphthalen-1-yl)acetate] | 13 | > 50 | – | IC50 ([1]; bloodstream form, read-out: IC50 against T. brucei): 0.043 µM |
| Cc1ncc(C(=O)O[C@@H]2CC[C@@]34C[C@@H]2OO[C@]3(C)C(=O)CCC4(C)C)s1 [compound 18, (3S,4R,6aS,10aS)-7,7,10a-trimethyl-10-oxooctahydro-3H-3,6a-methanobenzo[c][1,2]dioxocin-4-yl 2-methylthiazole-5-carboxylate] | > 50 | > 50 | 0.7 | – |
| CC1(C)CCC(=O)[C@@]2(C)OO[C@H]3C[C@@]12CC[C@H]3OC(=O)c1cnc(Br)s1 [compound 19, (3S,4R,6aS,10aS)-7,7,10a-trimethyl-10-oxooctahydro-3H-3,6a-methanobenzo[c][1,2]dioxocin-4-yl 2-bromothiazole-5-carboxylate] | 13 | > 50 | 0.66 | – |
| CC1(C)CCC(=O)[C@@]2(C)OO[C@H]3C[C@@]12CC[C@H]3OC(=O)c1ccsc1 [compound 20, (3S,4R,6aS,10aS)-7,7,10a-trimethyl-10-oxooctahydro-3H-3,6a-methanobenzo[c][1,2]dioxocin-4-yl thiophene-3-carboxylate] | 16 | > 50 | 0.33 | – |
| CC1(C)CCC(=O)[C@@]2(C)OO[C@H]3C[C@@]12CC[C@H]3OC(=O)c1cc(Cl)sc1Cl [compound 21, (3S,4R,6aS,10aS)-7,7,10a-trimethyl-10-oxooctahydro-3H-3,6a-methanobenzo[c][1,2]dioxocin-4-yl 2,5-dichlorothiophene-3-carboxylate] | 21 | > 50 | 0.54 | – |
| CC1(C)CCC(=O)[C@@]2(C)OO[C@H]3C[C@@]12CC[C@H]3OC(=O)c1cc(-c2ccccc2)no1 [compound 22, (3S,4R,6aS,10aS)-7,7,10a-trimethyl-10-oxooctahydro-3H-3,6a-methanobenzo[c][1,2]dioxocin-4-yl 3-phenylisoxazole-5-carboxylate] | > 50 | 20 | 0.19 | – |
| CC1(C)CCC(=O)[C@@]2(C)OO[C@H]3C[C@@]12CC[C@H]3OC(=O)c1ccno1 [compound 23, (3S,4R,6aS,10aS)-7,7,10a-trimethyl-10-oxooctahydro-3H-3,6a-methanobenzo[c][1,2]dioxocin-4-yl isoxazole-5-carboxylate] | > 50 | > 50 | 1.8 | – |
| CC1(C)CCC(=O)[C@@]2(C)OO[C@H]3C[C@@]12CC[C@H]3OC(=O)c1ccc(N2CCOCC2)cc1 [compound 24, (3S,4R,6aS,10aS)-7,7,10a-trimethyl-10-oxooctahydro-3H-3,6a-methanobenzo[c][1,2]dioxocin-4-yl 4-morpholinobenzoate] | 12 | > 50 | 0.27 | – |
| CC1(C)CCC(=O)[C@@]2(C)OO[C@H]3C[C@@]12CC[C@H]3OC(=O)c1ccncc1 [compound 25, (3S,4R,6aS,10aS)-7,7,10a-trimethyl-10-oxooctahydro-3H-3,6a-methanobenzo[c][1,2]dioxocin-4-yl isonicotinate] | > 50 | > 50 | 0.95 | – |
